The test system of assay [1] is ERK1/2 phosphorylation in Panc-1 cells. Briefly: Western ERK1/2 cell-based phosphorylation assay. The note with it: at 10 μM, values in brackets < > are activation %, not inhibition. The arrangement: species or system human. As to the method:
Cell lines: Human tumor-derived pancreatic cancer cell line Panc-1 was purchased from American Type Culture Collection and grown in complete DMEM-High Glucose, supplemented with penicillin (100 U/mL), streptomycin (100 μg/mL), and 10% heat-inactivated FBS at 37° C. in a humidified incubator with 5% CO2.
Method: Cells were plated at 350000 cells/well density in a 12-well plate, allowed 3 hours to adhere to the plate, then starved in the appropriate medium in the presence of 0.5% FBS overnight. The small molecules to be tested were added to the cells in the final concentration of 10 μM in the presence of 0.3% DMSO for 6 hours incubation at 37° C. For IC50 value determination, serial dilutions of compounds were added to cells under the same conditions. Next, cells were stimulated with 1.5 ng/ml EGF for 15 minutes then cells were lysed with lysis buffer containing 1% Triton X-100, EDTA, and Halt™ Protease & Phosphatase Inhibitor Cocktail (Thermo Scientific). Protein concentration was assessed by BCA protein assay (Thermo Scientific). Phosphorylation level of ERK1/2 was determined by western blot.
Western blot protocol: Equal amounts of protein (15-50 μg) were separated by SDS-PAGE and transferred to nitrocellulose membranes (Invitrogen by Thermo Fisher Scientific). The membrane was stained with Ponceau S Stain (Boston BioProducts) to verify uniform protein loading. Membranes were blocked with 10% milk and phosphorylation levels of ERK1/2 were assessed by incubating overnight at 4° C. with anti-phospho-p44/42 (Thr202/Tyr204) antibody (Cell Signaling) followed by HRP-conjugated secondary antibody (Jackson Immunoresearch, West Grove, Pa.). Bands were incubated in Amersham ECL Prime Western Blotting Detection Reagent (GE Healthcare) and visualized using the ChemiDoc MP imaging system (Bio-Rad). Protocol for Western AKT cell-based phosphorylation assay

Assay [2] concerns MIA-PaCa-2 pancreatic cancer cell line (KRAS G12C). Briefly: Cell proliferation assay (CellTiter 96 Aqueous One). The class given is cell-based. As to conditions: Homo sapiens; for IC50: MIA PaCa-2, MIA PaCa-2; for inhibition at 10 µM: MIA PaCa-2, read-out: % inh cell proliferation (10 μM) in MIA PaCa-2. As to the method: Cell lines: Human tumor-derived cell lines were purchased from American Type Culture Collection. Human tumor-derived pancreatic cancer cell line MIA-PACA2 (having a KRAS G12C mutation) and Panc-1 (having a KRAS G12D mutation), and Human non-small cell lung cancer (NSCLC) cell line A549 (having a KRAS G12S mutation) were grown in complete DMEM-High Glucose. Human colon cancer cell line SW-620 (having a KRAS G12V mutation) was grown in RPMI. All cell lines were supplemented with penicillin (100 U/mL), streptomycin (100 μg/mL), and 10% heat-inactivated FBS at 37° C. in a humidified incubator with 5% CO2.
Method: Cells were plated at 2000 to 5000 cells/well density in 96-wells plate and cultured overnight. Small molecules to be tested were added to the cells in the final concentration of 10 μM in the presence of 0.3% DMSO and 10% FBS, and incubated for 2-4 days at 37° C. in a humidified incubator with 5% CO2. For IC50 value determination, serial dilutions of compounds were added to cells under the same conditions.
Assay: At the end of the incubation period, cell viability was measured using the CellTiter 96® Aqueous One Solution Cell Proliferation Assay according to manufacturer specifications (Promega, Madison, Wis.). The percentage of small molecules inhibition of cellular proliferation was calculated from raw data.

The IC50 is the concentration that gives 50% inhibition. Read a high IC50 as weaker potency. On to `COCC1CCN(c2nc(-c3ccccn3)nc3sc(-c4ccn(C(C)C)n4)c(C)c23)C1` (racemic) [Compound 71, Rac-6-(1-Isopropyl-1H-pyrazol-3-yl)-4-(3-(methoxymethyl)pyrrolidin-1-yl)-5-methyl-2-(pyridin-2-yl)thieno[2,3-d]pyrimidine], for which the “% inh of ERK1/2 phosphorylation in PANC-1” value (“% inh” below) in assay [1] is listed as “D (76-100% inhibition)”. Besides, in assay [2], the half-maximal inhibitory concentration (IC50) was 5 to 10 µM and the inhibition at 10 µM is 76 to 100%.

`CO[C@H]1CC[C@@H](Nc2nc(-c3nccn3C)nc3sc(-c4ccn(C(C)C)n4)c(C(F)(F)F)c23)C1` (racemic) [Compound 73, Rac-6-(1-isopropyl-1H-pyrazol-3-yl)-N-((1R,3S)-3-methoxycyclopentyl)-2-(1-methyl-1H-imidazol-2-yl)-5-(trifluoromethyl)thieno[2,3-d]pyrimidin-4-amine]: the “% inh” value in assay [1] was “D (76-100% inhibition)”. For the same molecule, in assay [2], the IC50 lay within 1 to 4.99 µM and the inhibition at 10 µM is 76 to 100%.

As for `COCC1CCN(c2nc(-c3nccn3C)nc3sc(-c4ccn(C(C)C)n4)c(C(F)(F)F)c23)C1` (racemic) [Compound 74, Rac-6-(1-Isopropyl-1H-pyrazol-3-yl)-4-(3-(methoxymethyl)pyrrolidin-1-yl)-2-(1-methyl-1H-imidazol-2-yl)-5-(trifluoromethyl)thieno[2,3-d]pyrimidine], the “% inh” value in assay [1] is reported as “D (76-100% inhibition)”. Also, in assay [2], the 50% inhibitory concentration (IC50) is below 1 µM and the inhibition at 10 µM was 76 to 100%.

Turning to `COC1CCCN(c2nc(-c3nccn3C)nc3sc(-c4ccn(C(C)C)n4)c(C(F)(F)F)c23)C1` (racemic) [Compound 75, Rac-6-(1-Isopropyl-1H-pyrazol-3-yl)-4-(3-methoxypiperidin-1-yl)-2-(1-methyl-1H-imidazol-2-yl)-5-(trifluoromethyl)thieno[2,3-d]pyrimidine], the “% inh” value in assay [1] is “D (76-100% inhibition)”. For the same molecule, in assay [2], the IC50 is 5 to 10 µM and the inhibition at 10 µM lay in the range of 76 to 100%.

With `COCC1CCN(c2nc(-c3nccn3C)nc3sc(-c4ccn(C(C)C)n4)c(-c4ccccc4)c23)C1` (racemic) [Compound 76, Rac-6-(1-isopropyl-1H-pyrazol-3-yl)-4-(3-(methoxymethyl)pyrrolidin-1-yl)-2-(1-methyl-1H-imidazol-2-yl)-5-phenylthieno[2,3-d]pyrimidine], the “% inh” value in assay [1] was “D (76-100% inhibition)”. Also, in assay [2], the 50% inhibitory concentration (IC50) is below 1 µM and the inhibition at 10 µM was in the range of 76 to 100%.

Turning to `COC1CCCN(c2nc(-c3nccn3C)nc3sc(-c4ccn(C(C)C)n4)c(-c4ccccc4)c23)C1` (racemic) [Compound 77, Rac-6-(1-isopropyl-1H-pyrazol-3-yl)-4-(3-methoxypiperidin-1-yl)-2-(1-methyl-1H-imidazol-2-yl)-5-phenylthieno[2,3-d]pyrimidine], the “% inh” value in assay [1] was “B (26-50% inhibition)”. Moreover, in assay [2], the IC50 was in the range of 5 to 10 µM and the inhibition at 10 µM is 76 to 100%.

With `CO[C@H]1CC[C@@H](Nc2nc(-c3nccn3C)nc3sc(-c4cc[nH]n4)c(-c4ccccc4)c23)C1` (racemic) [Example 1, Rac-N-((1R,3S)-3-methoxycyclopentyl)-2-(1-methyl-1H-imidazol-2-yl)-5-phenyl-6-(1H-pyrazol-3-yl)thieno[2,3-d]pyrimidin-4-amine], the “% inh” value in assay [1] is on record as 0 (0% inhibition). Also, in assay [2], the IC50 was above 10 µM and the inhibition at 10 µM is 0%.

For the molecule `CO[C@H]1CC[C@@H](Nc2nc(-c3nccn3C)nc3sc(-c4ccn(C(C)C)n4)c(-c4ccccc4)c23)C1` [Compound 5, 6-(1-Isopropyl-1H-pyrazol-3-yl)-N-((1R,3S)-3-methoxycyclopentyl)-2-(1-methyl-1H-imidazol-2-yl)-5-phenylthieno[2,3-d]pyrimidin-4-amine], in assay [1], the “% inh” value is “D (76-100% inhibition)”. Further, in assay [2], the IC50 is below 1 µM and the inhibition at 10 µM fell in the range of 76 to 100%.

Turning to `COCCn1ccnc1-c1nc(N[C@H]2C[C@@H](OC)C2)c2c(-c3ccccc3)c(-c3ccn(C)n3)sc2n1` [Compound 7, N-((1s,3s)-3-Methoxycyclobutyl)-2-(1-(2-methoxyethyl)-1H-imidazol-2-yl)-6-(1-methyl-1H-pyrazol-3-yl)-5-phenylthieno[2,3-d]pyrimidin-4-amine], in assay [1], the “% inh” value was “D (76-100% inhibition)”. In addition, in assay [2], the IC50 lay within 1 to 4.99 µM and the inhibition at 10 µM was in the range of 76 to 100%.

On to `COCCn1ccnc1-c1nc(N[C@H]2C[C@@H](OC)C2)c2ccsc2n1` [Compound 9, N-((1s,3s)-3-Methoxycyclobutyl)-2-(1-(2-methoxyethyl)-1H-imidazol-2-yl)thieno[2,3-d]pyrimidin-4-amine], for which, in assay [1], the “% inh” value was 0 (0% inhibition). Also, in assay [2], the IC50 was above 10 µM and the inhibition at 10 µM lay in the range of 1 to 25%.

On to `NC(=O)c1nc(O)c2scc(-c3ccccn3)c2n1` [Compound 18, 4-Hydroxy-7-(pyridin-2-yl)thieno[3,2-d]pyrimidine-2-carboxamide], for which the “% inh” value in assay [1] is on record as 0 (0% inhibition). Further, in assay [2], the IC50 is above 10 µM and the inhibition at 10 µM was 0%.

On to `O=C(c1nc(O)c2scc(-c3ccccn3)c2n1)N1CCCC1` [Compound 19, (4-Hydroxy-7-(pyridin-2-yl)thieno[3,2-d]pyrimidin-2-yl)(pyrrolidin-1-yl)methanone], for which the “% inh” value in assay [1] is given as 0 (0% inhibition). Moreover, in assay [2], the IC50 is above 10 µM and the inhibition at 10 µM is 0%.

With `CC(C)NC(=O)c1nc(O)c2scc(-c3ccccn3)c2n1` [Compound 20, 4-Hydroxy-N-isopropyl-7-(pyridin-2-yl)thieno[3,2-d]pyrimidine-2-carboxamide], the “% inh” value in assay [1] was 0 (0% inhibition). Further, in assay [2], the IC50 was above 10 µM and the inhibition at 10 µM was in the range of 1 to 25%.

Turning to `COCCNC(=O)c1nc(O)c2scc(-c3ccccn3)c2n1` [Compound 21, 4-Hydroxy-N-(2-methoxyethyl)-7-(pyridin-2-yl)thieno[3,2-d]pyrimidine-2-carboxamide], the “% inh” value in assay [1] is given as 0 (0% inhibition). Moreover, in assay [2], the IC50 was above 10 µM and the inhibition at 10 µM lay within 1 to 25%.

Consider `O=C(c1nc(O)c2scc(-c3ccccn3)c2n1)N1CCOCC1` [Compound 22, (4-Hydroxy-7-(pyridin-2-yl)thieno[3,2-d]pyrimidin-2-yl)(morpholino)methanone], for which the “% inh” value in assay [1] is listed as 0 (0% inhibition). Also, in assay [2], the IC50 is above 10 µM and the inhibition at 10 µM lay within 1 to 25%.

On to `O=C(Nc1ccccc1)c1nc(O)c2scc(-c3ccccn3)c2n1` [Compound 23, 4-Hydroxy-N-phenyl-7-(pyridin-2-yl)thieno[3,2-d]pyrimidine-2-carboxamide], for which the “% inh” value in assay [1] was 0 (0% inhibition). In addition, in assay [2], the half-inhibitory concentration (IC50) was above 10 µM and the inhibition at 10 µM came out at 0%.

For `O=C(Nc1ccccn1)c1nc(O)c2scc(-c3ccccn3)c2n1` [Compound 24, 4-Hydroxy-N,7-di(pyridin-2-yl)thieno[3,2-d]pyrimidine-2-carboxamide], in assay [1], the “% inh” value was 0 (0% inhibition). Moreover, in assay [2], the IC50 was above 10 µM and the inhibition at 10 µM lay within 1 to 25%.

On to `Cc1sc2c(O)nc(-c3ccccn3)nc2c1-c1ccccn1` [Compound 26, 6-Methyl-2,7-di(pyridin-2-yl)thieno[3,2-d]pyrimidin-4-ol], for which the “% inh” value in assay [1] is on record as 0 (0% inhibition). Further, in assay [2], the IC50 was in the range of 5 to 10 µM and the inhibition at 10 µM lay in the range of 51 to 75%.

In the case of `Cn1ccnc1-c1nc(O)c2scc(-c3ncccc3F)c2n1` [Compound 30, 7-(3-Fluoropyridin-2-yl)-2-(1-methyl-1H-imidazol-2-yl)thieno[3,2-d]pyrimidin-4-ol], in assay [1], the “% inh” value was 0 (0% inhibition). For the same molecule, in assay [2], the IC50 is above 10 µM and the inhibition at 10 µM fell in the range of 26 to 50%.

The record behind these values is patent US20230227466A1, “SUBSTITUTED THIENOPYRIMIDINES THAT INTERACT WITH THE RAS SUPERFAMILY FOR THE TREATMENT OF CANCERS, INFLAMMATORY DISEASES, RASOPATHIES, AND FIBROTIC DISEASE” (SHY Therapeutics, LLC, priority 2020, published 2023).
